Patent US20250122174A1 (Shenzhen Yuanli Shenwan Innovative Medicine Co., Ltd., priority 2022, published 2025)

Each compound was assayed against HPK1 (Homo sapiens (Human), UniProt Q92918) (assay: HPK1 Inhibition Assay (ADP-Glo kinase assay)). Settings: ATP 10 μM.
HPK1, sequence (Q92918 1-346 limits assumed): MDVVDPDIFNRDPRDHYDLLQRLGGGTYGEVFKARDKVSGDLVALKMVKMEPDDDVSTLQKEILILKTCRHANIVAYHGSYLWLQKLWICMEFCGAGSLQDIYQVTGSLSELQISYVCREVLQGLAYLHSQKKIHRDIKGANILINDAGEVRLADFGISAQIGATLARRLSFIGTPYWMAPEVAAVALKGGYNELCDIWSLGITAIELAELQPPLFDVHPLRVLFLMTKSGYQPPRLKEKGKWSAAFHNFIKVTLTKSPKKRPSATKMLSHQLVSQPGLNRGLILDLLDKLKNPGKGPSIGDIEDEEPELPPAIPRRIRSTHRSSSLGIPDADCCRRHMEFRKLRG
Format: biochemical
Procedure: A stock solution of 10 mM test compound was prepared in DMSO. The compound was prepared by 5-fold and 10-point serial dilutions with HPK1 kinase assay buffer. The HPK1 kinase assay buffer contained 40 mM Tris, pH 7.5; 20 mM MgCl2, 0.1 mg/ml BSA, and 50 μM DTT. 7.5 ng/μl of Active HPK1 (Promega, V4098) and 0.1 μg/ml MBP substrate protein were added to the reaction system. The final concentration of ATP in the HPK1 kinase reaction system was 10 μM. Serial diluted compounds were transferred to the reaction system and incubated at room temperature for 1 hr. 5 μL of ADP-Glo™ Reagent (Promega, V9101) was added and incubated for 40 min to stop the kinase reaction and deplete the unconsumed ATP. […] The luminescence was measured with a plate-reading luminometer.
In the case of `Cc1nc2c(N3CC[C@H](N)C3)c(NC(=O)c3ccc(=O)n(-c4c(F)cccc4F)n3)ccc2n1C1CCN(C)CC1` [Example 106, (S)—N-(4-(3-aminopyrrolidin-1-yl)-2-methyl-1-(1-methylpiperidin-4-yl)-1H-benzo[d]imidazol-5-yl)-1-(2,6-difluorophenyl)-6-oxo-1,6-dihydropyridazine-3-carboxamide], the IC50 is reported as < 100 nM.
Work on `Cc1nc2c(N3CC[C@H](N)C3)c(NC(=O)c3ccc(=O)n(-c4c(Cl)cccc4Cl)n3)ccc2n1C` [Example 107, (S)—N-(4-(3-aminopyrrolidin-1-yl)-1,2-dimethyl-1H-benzo[d]imidazol-5-yl)-1-(2,6-dichlorophenyl)-6-oxo-1,6-dihydropyridazine-3-carboxamide] yielded an IC50 of 100 to 1000 nM.
With `CC(C)n1cc2c(N3CCC(N)CC3)c(NC(=O)c3ccc(=O)n(-c4c(F)cccc4F)n3)ccc2n1` [Example 230, N-(4-(4-aminopiperidin-1-yl)-2-isopropyl-2H-indazol-5-yl)-1-(2,6-difluorophenyl)-6-oxo-1,6-dihydropyridazine-3-carboxamide] the IC50 was < 100 nM.
`COc1cccc(F)c1-c1cccc(C(=O)Nc2cc(F)c3c(cnn3C)c2N2CC[C@H](N)C2)[n+]1[O-]` [Example 58, 2-((4-((S)-3-aminopyrrolidin-1-yl)-7-fluoro-1-methyl-1H-indazol-5-yl)carbamoyl)-6-(2-fluoro-6-methoxyphenyl)pyridine 1-oxide] was tested, and the IC50 was < 100 nM.
`Cn1c(C(F)(F)F)nc2c(N3CC[C@H](N)C3)c(NC(=O)c3ccnn(-c4c(F)cccc4F)c3=O)ccc21` [Example 39, (S)—N-(4-(3-aminopyrrolidin-1-yl)-1-methyl-2-(trifluoromethyl)-1H-benzo[d]imidazol-5-yl)-2-(2,6-difluorophenyl)-3-oxo-2,3-dihydropyridazine-4-carboxamide] showed an IC50 of 100 to 1000 nM.
In the case of `COc1ccc(F)c(F)c1-c1nccc(C(=O)Nc2cc(F)ccc2N2C[C@H]3C[C@@H]2CN3)c1F` [Example 5, N-(2-((1R,4R)-2,5-diazabicyclo[2.2.1]heptan-2-yl)-5-fluorophenyl)-2-(2,3-difluoro-6-methoxyphenyl)-3-fluoroisonicotinamide], the IC50 is reported as < 100 nM.
For `CC(C)n1nnc2c(N3C[C@@H](C)[C@@H](N)C3)c(NC(=O)c3ccc(=O)n(-c4c(F)cccc4F)n3)ccc21` [Example 341, N-(4-((3R,4R)-3-amino-4-methylpyrrolidin-1-yl)-1-isopropyl-1H-benzo[d][1,2,3]triazol-5-yl)-1-(2,6-difluorophenyl)-6-oxo-1,6-dihydropyridazine-3-carboxamide], the IC50 was < 100 nM.
`C[C@H]1CN(c2c(NC(=O)c3ccc(=O)n(-c4c(F)cccc4F)n3)ccc3c2cnn3C2CCOCC2)C[C@@H]1N` [Example 273, N-(4-((3R,4S)-3-amino-4-methylpyrrolidin-1-yl)-1-(tetrahydro-2H-pyran-4-yl)-1H-indazol-5-yl)-1-(2,6-difluorophenyl)-6-oxo-1,6-dihydropyridazine-3-carboxamide] was tested, and the IC50 was < 100 nM.
For `CC(C)n1cc2c(N3C[C@@H](C)[C@@H](N)C3)c(NC(=O)c3ccc(=O)n(-c4c(F)cccc4F)n3)ccc2n1` [Example 224, N-(4-((3R,4R)-3-amino-4-methylpyrrolidin-1-yl)-2-isopropyl-2H-indazol-5-yl)-1-(2,6-difluorophenyl)-6-oxo-1,6-dihydropyridazine-3-carboxamide], the IC50 was < 100 nM.
For `COc1cccc(F)c1-c1nccc(C(=O)Nc2ccc3c(nc(-c4ccncc4F)n3C)c2N2CC[C@H](N)C2)c1F` [Example 14, N-{4-[(3S)-3-aminopyrrolidin-1-yl]-2-(3-fluoropyridin-4-yl)-1-methyl-1,3-benzodiazol-5-yl}-3-fluoro-2-(2-fluoro-6-methoxyphenyl)pyridine-4-carboxamide], the IC50 was < 100 nM.
For `CC(C)Cn1cc2c(N3CC[C@@H](N)C3)c(NC(=O)c3ccc(=O)n(-c4c(F)cccc4F)n3)ccc2n1` [Example 331, (R)-N-(4-(3-aminopyrrolidin-1-yl)-2-isobutyl-2H-indazol-5-yl)-1-(2,6-difluorophenyl)-6-oxo-1,6-dihydropyridazine-3-carboxamide], the IC50 was < 100 nM.
With `CC(C)c1nc2c(N3CC4C(N)C4C3)c(NC(=O)c3ccc(=O)n(-c4c(F)cccc4F)n3)ccc2n1C` [Example 119, N-(4-((1R,5S,6r)-6-amino-3-azabicyclo[3.1.0]hexan-3-yl)-2-isopropyl-1-methyl-1H-benzo[d]imidazol-5-yl)-1-(2,6-difluorophenyl)-6-oxo-1,6-dihydropyridazine-3-carboxamide] the IC50 was < 100 nM.
With `Cn1c(C2(C(F)(F)F)CC2)nc2c(N3C[C@H](N)C4(CC4)C3)c(NC(=O)c3ccc(=O)n(-c4c(F)cccc4F)n3)ccc21` [Example 149, (R)-N-(4-(7-amino-5-azaspiro[2.4]heptan-5-yl)-1-methyl-2-(1-(trifluoromethyl)cyclopropyl)-1H-benzo[d]imidazol-5-yl)-1-(2,6-difluorophenyl)-6-oxo-1,6-dihydropyridazine-3-carboxamide] the IC50 was < 100 nM.
`Cn1ncc2c(N3C[C@@H]4C[C@H]3CN4)c(NC(=O)c3ccc(=O)n(-c4c(F)cccc4F)n3)ccc21` [Example 87, N-(4-((1S,4S)-2,5-diazabicyclo[2.2.1]heptan-2-yl)-1-methyl-1H-indazol-5-yl)-1-(2,6-difluorophenyl)-6-oxo-1,6-dihydropyridazine-3-carboxamide] gave an IC50 of 100 to 1000 nM.
With `C[C@H]1CN(c2c(NC(=O)c3ccc(=O)n(-c4c(F)cccc4F)n3)ccc3nn(C4CC(F)(F)C4)cc23)C[C@@H]1N` [Example 309, N-(4-((3R,4S)-3-amino-4-methylpyrrolidin-1-yl)-2-(3,3-difluorocyclobutyl)-2H-indazol-5-yl)-1-(2,6-difluorophenyl)-6-oxo-1,6-dihydropyridazine-3-carboxamide] the IC50 was < 100 nM.
In the case of `CC(C)C(C)(C)n1cc2c(N3C[C@@H](C)[C@@H](N)C3)c(NC(=O)c3ccc(=O)n(-c4c(F)cccc4F)n3)ccc2n1` [Example 247, N-(4-((3R,4R)-3-amino-4-methylpyrrolidin-1-yl)-2-(2,3-dimethylbutan-2-yl)-2H-indazol-5-yl)-1-(2,6-difluorophenyl)-6-oxo-1,6-dihydropyridazine-3-carboxamide], the IC50 is reported as < 100 nM.
For `COCCn1c(C)nc2c(N3CCC[C@H]3CN)c(NC(=O)c3ccnn(-c4c(F)cccc4F)c3=O)ccc21` [Example 45], the IC50 was < 100 nM.
With `N[C@@H]1CCN(c2c(NC(=O)c3ccc(=O)n(-c4c(F)cccc4F)n3)ccc3nn(C4CCOCC4)cc23)C1` [Example 337, (R)-N-(4-(3-aminopyrrolidin-1-yl)-2-(tetrahydro-2H-pyran-4-yl)-2H-indazol-5-yl)-1-(2,6-difluorophenyl)-6-oxo-1,6-dihydropyridazine-3-carboxamide] the IC50 was < 100 nM.
`N[C@H]1CN(c2c(NC(=O)c3ccc(=O)n(-c4c(F)cccc4F)n3)ccc3c2cnn3[C@@H]2CCCOC2)CC12CC2` [Example 272, N-(4-((R)-7-amino-5-azaspiro[2.4]heptan-5-yl)-1-((R)-tetrahydro-2H-pyran-3-yl)-1H-indazol-5-yl)-1-(2,6-difluorophenyl)-6-oxo-1,6-dihydropyridazine-3-carboxamide] was tested, and the IC50 was < 100 nM.
`Cn1ncc2c(N3CCC[C@@H](N)C3)c(NC(=O)c3ccc(=O)n(-c4c(F)cccc4F)n3)cc(F)c21` [Example 169, (R)-N-(4-(3-aminopiperidin-1-yl)-7-fluoro-1-methyl-1H-indazol-5-yl)-1-(2,6-difluorophenyl)-6-oxo-1,6-dihydropyridazine-3-carboxamide] was tested, and the IC50 was < 100 nM.
For `CC(C)n1cc2c(N3C[C@@H]4C[C@H]3CN4)c(NC(=O)c3ccc(=O)n(-c4c(F)cccc4F)n3)cc(F)c2n1` [Example 233, N-(4-((1S,4S)-2,5-diazabicyclo[2.2.1]heptan-2-yl)-7-fluoro-2-isopropyl-2H-indazol-5-yl)-1-(2,6-difluorophenyl)-6-oxo-1,6-dihydropyridazine-3-carboxamide], the IC50 was < 100 nM.
`COc1cccc(F)c1-c1cccc(C(=O)Nc2ccc3nn(C)cc3c2N2C[C@H]3C[C@@H]2CN3)[n+]1[O-]` [Example 57, 2-((4-((1R,4R)-2,5-diazabicyclo[2.2.1]heptan-2-yl)-2-methyl-2H-indazol-5-yl)carbamoyl)-6-(2-fluoro-6-methoxyphenyl)pyridine 1-oxide] was tested, and the IC50 was < 100 nM.
In the case of `CC(C)C(C)(C)n1cc2c(N3C[C@H](N)C4(CC4)C3)c(NC(=O)c3ccc(=O)n(-c4c(F)cccc4F)n3)ccc2n1` [Example 248, (R)-N-(4-(7-amino-5-azaspiro[2.4]heptan-5-yl)-2-(2,3-dimethylbutan-2-yl)-2H-indazol-5-yl)-1-(2,6-difluorophenyl)-6-oxo-1,6-dihydropyridazine-3-carboxamide], the IC50 is reported as < 100 nM.
For `CC(C)c1nc2c(N3CC4C[C@]4(N)C3)c(NC(=O)c3ccc(=O)n(-c4c(F)cccc4F)n3)ccc2n1C` (stereo partly drawn) [Example 112, N-(4-((1R)-1-amino-3-azabicyclo[3.1.0]hexan-3-yl)-2-isopropyl-1-methyl-1H-benzo[d]imidazol-5-yl)-1-(2,6-difluorophenyl)-6-oxo-1,6-dihydropyridazine-3-carboxamide], the IC50 was < 100 nM.
For `CC(C)c1nc2c(N3CC(F)(F)C[C@H]3CN)c(NC(=O)c3ccc(=O)n(-c4c(F)cccc4F)n3)ccc2n1C` [Example 141, (S)-N-(4-(2-(aminomethyl)-4,4-difluoropyrrolidin-1-yl)-2-isopropyl-1-methyl-1H-benzo[d]imidazol-5-yl)-1-(2,6-difluorophenyl)-6-oxo-1,6-dihydropyridazine-3-carboxamide], the IC50 was < 100 nM.
In the case of `Cn1c(C(C)(C)F)nc2c(N3CC[C@@H](N)C3)c(NC(=O)c3ccc(=O)n(-c4c(F)cccc4F)n3)cc(F)c21` [Example 157, (R)-N-(4-(3-aminopyrrolidin-1-yl)-7-fluoro-2-(2-fluoropropan-2-yl)-1-methyl-1H-benzo[d]imidazol-5-yl)-1-(2,6-difluorophenyl)-6-oxo-1,6-dihydropyridazine-3-carboxamide], the IC50 is reported as < 100 nM.
